# Reference: patent publication US20230159510A1, “NOVEL PRMT5 INHIBITORS” (AMGEN INC., priority 2020, published 2023)
# Like-named read-outs stand apart in the source and are kept apart here.
# What was measured:
# HCT116 MTAP null cells = assay: HCT116 proliferation assay, MTAP null cells (CellTiter-Glo, 6 days); format: cell-based; settings: read-out: Protif_ HCT116-MTAP null IC50
# Method: (§1) HCT116 MTAP null and WT cells were seeded in 96-well tissue culture plates in RPMI 1640 media + 10% fetal bovine serum. Plates were incubated overnight at 37° C. and 5% CO2. Cells were then treated with a 8- or 9-point serial dilution of compound, using a top concentration of 1 or 10 µM, 1:3 serial dilution steps and, a DMSO-only control. Cells were incubated in the presence of drug for 6 days. Effects on cell viability were measured with the CellTiter-Glo® Luminescent Cell Viability Assay (Promega) per manufacturer’s recommendation. Assay plates were read on an EnVision™ Multilabel Reader using the Ultra-Sensitive luminescence module.
# HCT116 WT cells = assay: HCT116 proliferation assay, WT cells (CellTiter-Glo, 6 days); format: cell-based; settings: read-out: Prolif_HCT116-WT IC50
# Method: as §1
Compound,IC50 (HCT116 MTAP null cells),IC50 (HCT116 WT cells),"IC50 (HCT116 MTAP null cells; HCT116-MTAP null, 144 h)","IC50 (HCT116 WT cells; Homo sapiens, HCT-116, 144 h)"
"2-amino-3-methyl-N-(4-(3-oxetanyl)benzyl)-N-((1R)-1-(2-pyrimidinyl)ethyl)-6-quinolinecarboxamide, 2-amino-3-methyl-N-(4-(3-oxetanyl)benzyl)-N-((1S)-1-(2-pyrimidinyl)ethyl)-6-quinolinecarboxamide [Example 802]",393 nM,9300 nM,,
"2-amino-N-((1S,2S)-2-methoxy-2,3-dihydro-1H-inden-1-yl)-3-methyl-N-((5-(trifluoromethyl)-2-pyridinyl)methyl)-6-quinolinecarboxamide [Example 753]",408 nM,> 10000 nM,,
"2-amino-N-((3R,4S)-3-fluorotetrahydro-2H-pyran-4-yl)-3-methyl-N-((5-(trifluoromethyl)-2-pyridinyl)methyl)-6-quinolinecarboxamide and 2-amino-N-((3S,4R)-3-fluorotetrahydro-2H-pyran-4-yl)-3-methyl-N-((5-(trifluoromethyl)-2-pyridinyl)methyl)-6-quinolinecarboxamide [Example 747]",385 nM,5260 nM,,
"CO[C@@H]1COCC[C@H]1N(Cc1ccc(C(F)(F)F)cn1)C(=O)c1ccc2nc(N)c(C)cc2c1 (mixture of isomers) [Example 748, 2-amino-N-((3R,4S)-3-methoxytetrahydro-2H-pyran-4-yl)-3-methyl-N-((5-(trifluoromethyl)-2-pyridinyl)methyl)-6-quinolinecarboxamide and 2-amino-N-((3S,4R)-3-methoxytetrahydro-2H-pyran-4-yl)-3-methyl-N-((5-(trifluoromethyl)-2-pyridinyl)methyl)-6-quinolinecarboxamide]",84 nM,2620 nM,,
"Cc1cc2cc(C(=O)N(Cc3ccc(C(F)(F)F)cn3)[C@@H]3COCC[C@H]3F)ccc2nc1N (mixture of isomers) [Example 749, 2-amino-N-((3R,4R)-4-fluorotetrahydro-2H-pyran-3-yl)-3-methyl-N-((5-(trifluoromethyl)-2-pyridinyl)methyl)-6-quinolinecarboxamide and 2-amino-N-((3S,4S)-4-fluorotetrahydro-2H-pyran-3-yl)-3-methyl-N-((5-(trifluoromethyl)-2-pyridinyl)methyl)-6-quinolinecarboxamide]",,,95 nM,2150 nM
"Cc1cc2cc(C(=O)N(Cc3ccc(C(F)(F)F)cn3)[C@@H]3CCOC[C@H]3O)ccc2nc1N (mixture of isomers) [Example 803, 2-amino-N-((3R,4S)-3-hydroxytetrahydro-2H-pyran-4-yl)-3-methyl-N-((5-(trifluoromethyl)-2-pyridinyl)methyl)-6-quinolinecarboxamide and 2-amino-N-((3S,4R)-3-hydroxytetrahydro-2H-pyran-4-yl)-3-methyl-N-((5-(trifluoromethyl)-2-pyridinyl)methyl)-6-quinolinecarboxamide]",,,412 nM,> 10000 nM
"CO[C@@H]1CCCC[C@H]1N(Cc1ccc(C(F)(F)F)cn1)C(=O)c1cnc2nc(N)c(Br)cc2c1 (racemic) [Example 798, 7-amino-6-bromo-N-((1R,2R)-2-methoxycyclohexyl)-N-((5-(trifluoromethyl)pyridin-2-yl)methyl)-1,8-naphthyridine-3-carboxamide]",,,250 nM,6960 nM
"CO[C@@H]1CCOC[C@H]1N(Cc1ccc(C(F)(F)F)cn1)C(=O)c1ccc2nc(N)c(C)cc2c1 (racemic) [Example 833, 2-Amino-N-((3R,4R)-4-methoxytetrahydro-2H-pyran-3-yl)-3-methyl-N-((5-(trifluoromethyl)-2-pyridinyl)methyl)-6-quinolinecarboxamide and 2-amino-N-((3S,4S)-4-methoxytetrahydro-2H-pyran-3-yl)-3-methyl-N-((5-(trifluoromethyl)-2-pyridinyl)methyl)-6-quinolinecarboxamide]",,,39 nM,1190 nM
"C#CCCCN(Cc1ccc(C(F)(F)F)cn1)C(=O)c1ccc2nc(N)c(C)cc2c1 [Example 692, 2-amino-3-methyl-N-pent-4-ynyl-N-[[5-(trifluoromethyl)-2-pyridyl]methyl] quinoline-6-carboxamide]",,,> 1000 nM,
